Assay results: patent US7355001B2, “Organic anion transport protein TCH229” (Takeda Pharmaceutical Company Limited, priority 2002, dated 2008)

Experiments:
human TCH229 [1] = test: Expression of human TCH229 gene in RPTEC stimulated with stimulants (TaqMan PCR); type: cell-based; conditions: stimulant 10 ng/ml, 0.5-8 hours after addition
Experimental: (§1) (2) Preparation of cDNA from Normal Human Cells Stimulated with Various Stimulants a) Renal proximal tubular epithelial cell (RPTEC) and human renal cortical epithelial cell (HRCE) (both available from Cambrex BioScience Walkersvill) were plated on a 24-well collagen-coated plate in 1×10^5 cells/well and then cultured overnight, and after the medium was replaced by […] (T3)-free Bullet Kit REGM (BIO WHITTAKER), the cells were cultured for additional 30 minutes. b) As stimulants, TGF-β1 (Wako Pure Chemical Industries, Ltd.), TNF-α (Genzyme), IL-1β (Genzyme), IL-6 (Genzyme) and PMA (Wako Pure Chemical Industries, Ltd.) were used. A solution was prepared by diluting each of these 5 stimulants at the final concentration of 10 ng/ml with T3-free Bullet Kit REGM (BIO WHITTAKER). c) Just after the culture supernatants of the RPTEC and HRCE in the above item a) were removed, the solution prepared in the above item b) was added in a volume of 500 μl/well, and the cells were cultured. As the control, a mixture of the 5 stimulants dissolved in a solvent was diluted at the same ratio as the stimulants with T3-free Bullet Kit REGM (BIO WHITTAKER) to prepare a solution, and 500 μl of the solution was added to each well of RPTEC and HRCE, and the cells were cultured. d) 0.5, 1, 2, 4, 6 and 8 hours after addition of the stimulants, the cells were recovered respectively, and total RNA was prepared by using RNeasy Mini Kit (Quiagen). The total RNA thus prepared was subjected to reverse transcription reaction using TaqMan Reverse Transcription Reagents (manufactured by Applied Biosystems, Inc.) to prepare the cDNA. (3) Analysis of Expression of Human TCH229 Gene in Commercially Available Normal Human Cells
(§2) The expression level (copy number) of human TCH229 in the cDNAs prepared from the normal human cells and the PRTEC and HRCE stimulated with the stimulants was measured by TaqMan PCR with the 2 primer DNAs used in Example 4 (that is, primer TMF (SEQ ID NO: 19) and primer TMR (SEQ ID NO: 20)) and TaqMan probe P1 (SEQ ID NO: 21). For the cDNAs prepared respectively from the normal human cells and the PRTEC and HRCE stimulated with the stimulants, the expression level (copy number) of ribosomal RNA (18S) was assayed by using Eukaryotic 18S rRNA Pre-Developed TaqMan Assay Reagents (manufactured by Applied Biosystems, Inc.), and the expression level (copy number) of human glyceraldehyde-3-phosphate dehydrogenase (GAPDH) was also assayed by using human GAPD (GAPDH) (manufactured by Applied Biosystems, Inc.). […]

human TCH229 [2] = test: Expression of human TCH229 gene in HRCE stimulated with stimulants (TaqMan PCR); type: cell-based; conditions: stimulant 10 ng/ml, 0.5-8 hours after addition
Experimental: as §1, §2

Molecule	fluctuation of expression of human TCH229 (mRNA, relative to human GAPDH) as compared with the control (human TCH229 [1])	fluctuation of expression of human TCH229 (mRNA, relative to human GAPDH) as compared with the control (human TCH229 [2])
TNF-α	decreased depending on culture time	decreased depending on culture time
IL-1β: stimulant, IL-1β (Genzyme)	decreased depending on culture time	decreased depending on culture time
TGF-β1: stimulant, TGF-β1 (Wako Pure Chemical Industries, Ltd.)	decreased depending on culture time	decreased depending on culture time
CCCCCCCCCCCCCC(=O)O[C@@H]1[C@@H](C)[C@@]2(O)[C@@H](C=C(CO)C[C@]3(O)C(=O)C(C)=C[C@@H]23)[C@@H]2C(C)(C)[C@]12OC(C)=O [PMA]	decreased depending on culture time	decreased depending on culture time
